Reference: ChEMBL document CHEMBL3885861, “Open TG-GATES”

Species on record: Rattus norvegicus
Assay: Open TG-GATES - Regimen: Daily Repeat
Assay type: toxicity, organism-based, Sprague-Dawley
Set-up: regimen Daily Repeat, gender Male, age 6 weeks
Details: in vivo, po, 20 mg/kg, route gavage, dose level Low; for APTT / Bas / Eos / Fbg / Hb / Ht / Lym / MCH / MCHC / MCV / Mono / Neu / PT / Plat / RBC / Ret / WBC: tissue Blood; for KIDNEY_L / KIDNEY_R / KIDNEY_TOTAL: tissue Kidney; for LIVER: tissue Liver; for A/G / ALP / ALT / AST / BUN / CRE / Ca / Cl / DBIL / GLC / IP / K / LDH / Na / PL / RALB / TBIL / TC / TG / TP / gamma-GTP: tissue Plasma

CCc1oc2ccccc2c1C(=O)c1cc(Br)c(O)c(Br)c1 [BENZBROMARONE]
TERMINAL_BW (72 h, time 3 day): 239.2 g
APTT (72 h, time 3 day): 16.2 s
Bas (72 h, time 3 day): 0%
Eos (72 h, time 3 day): 1%
Fbg (72 h, time 3 day): 233.6 mg/dL
Hb (72 h, time 3 day): 13.8 g/dL
Ht (72 h, time 3 day): 41%
Lym (72 h, time 3 day): 78.8%
MCH (72 h, time 3 day): 22.4 pg
MCHC (72 h, time 3 day): 33.7%
MCV (72 h, time 3 day): 66.3 fL
Mono (72 h, time 3 day): 7%
Neu (72 h, time 3 day): 13.2%
PT (72 h, time 3 day): 11.8 s
Plat (72 h, time 3 day): 112.4 x10_4/uL
RBC (72 h, time 3 day): 619.6 x10_4/ul
Ret (72 h, time 3 day): 7.4%
WBC (72 h, time 3 day): 116.5 x10_2/uL
KIDNEY_L (72 h, time 3 day): 1.1 g
KIDNEY_R (72 h, time 3 day): 1.1 g
KIDNEY_TOTAL (72 h, time 3 day): 2.2 g
LIVER (72 h, time 3 day): 12.8 g
A/G (72 h, time 3 day): 2.1
ALP (72 h, time 3 day): 818.8 IU/L
ALT (72 h, time 3 day): 31.2 IU/L
AST (72 h, time 3 day): 59.8 IU/L
BUN (72 h, time 3 day): 18.6 mg/dL
CRE (72 h, time 3 day): 0.6 mg/dL
Ca (72 h, time 3 day): 10.4 mg/dL
Cl (72 h, time 3 day): 105 meq/L
DBIL (72 h, time 3 day): 0.008 mg/dL
GLC (72 h, time 3 day): 189.2 mg/dL
IP (72 h, time 3 day): 7.7 mg/dL
K (72 h, time 3 day): 4.9 meq/L
LDH (72 h, time 3 day): 90.2 IU/L
Na (72 h, time 3 day): 139.5 meq/L
PL (72 h, time 3 day): 158.8 mg/dL
RALB (72 h, time 3 day): 4 g/dL
TBIL (72 h, time 3 day): 0.3 mg/dL
TC (72 h, time 3 day): 84.2 mg/dL
TG (72 h, time 3 day): 114.2 mg/dL
TP (72 h, time 3 day): 6 g/dL
gamma-GTP (72 h, time 3 day): 0.8 IU/L
TERMINAL_BW ([…], time 7 day): 269 g
TERMINAL_BW ([…], time 14 day): 309.9 g
TERMINAL_BW ([…], time 28 day): 378.9 g
APTT ([…], time 7 day): 16.8 s
Bas ([…], time 7 day): 0%
Eos ([…], time 7 day): 1%
Fbg ([…], time 7 day): 244.4 mg/dL
Hb ([…], time 7 day): 14.2 g/dL
Ht ([…], time 7 day): 42%
Lym ([…], time 7 day): 79.8%
MCH ([…], time 7 day): 21.2 pg
MCHC ([…], time 7 day): 33.9%
MCV ([…], time 7 day): 62.6 fL
Mono ([…], time 7 day): 5.8%
Neu ([…], time 7 day): 13.4%
PT ([…], time 7 day): 11.9 s
Plat ([…], time 7 day): 113.1 x10_4/uL
RBC ([…], time 7 day): 670.8 x10_4/ul
Ret ([…], time 7 day): 5.9%
WBC ([…], time 7 day): 102 x10_2/uL
APTT ([…], time 14 day): 16.5 s
Bas ([…], time 14 day): 0%
Eos ([…], time 14 day): 1%
Fbg ([…], time 14 day): 228.8 mg/dL
Hb ([…], time 14 day): 14.4 g/dL
Ht ([…], time 14 day): 43.4%
Lym ([…], time 14 day): 81.4%
MCH ([…], time 14 day): 20.8 pg
MCHC ([…], time 14 day): 33.3%
MCV ([…], time 14 day): 62.5 fL
Mono ([…], time 14 day): 6.2%
Neu ([…], time 14 day): 11.2%
PT ([…], time 14 day): 11.7 s
Plat ([…], time 14 day): 104.8 x10_4/uL
RBC ([…], time 14 day): 694.6 x10_4/ul
Ret ([…], time 14 day): 4.4%
WBC ([…], time 14 day): 128.4 x10_2/uL
APTT ([…], time 28 day): 16.9 s
Bas ([…], time 28 day): 0%
Eos ([…], time 28 day): 1.4%
Fbg ([…], time 28 day): 223.4 mg/dL
Hb ([…], time 28 day): 15.4 g/dL
Ht ([…], time 28 day): 45.8%
Lym ([…], time 28 day): 85.4%
MCH ([…], time 28 day): 19.3 pg
MCHC ([…], time 28 day): 33.6%
MCV ([…], time 28 day): 57.6 fL
Mono ([…], time 28 day): 4.6%
Neu ([…], time 28 day): 8.6%
PT ([…], time 28 day): 12.1 s
Plat ([…], time 28 day): 101.2 x10_4/uL
RBC ([…], time 28 day): 795.8 x10_4/ul
Ret ([…], time 28 day): 2.8%
WBC ([…], time 28 day): 139.2 x10_2/uL
KIDNEY_L ([…], time 7 day): 1.2 g
KIDNEY_R ([…], time 7 day): 1.2 g
KIDNEY_TOTAL ([…], time 7 day): 2.4 g
KIDNEY_L ([…], time 14 day): 1.2 g
KIDNEY_R ([…], time 14 day): 1.3 g
KIDNEY_TOTAL ([…], time 14 day): 2.5 g
KIDNEY_L ([…], time 28 day): 1.5 g
KIDNEY_R ([…], time 28 day): 1.5 g
KIDNEY_TOTAL ([…], time 28 day): 2.9 g
LIVER ([…], time 7 day): 14.3 g
LIVER ([…], time 14 day): 15.3 g
LIVER ([…], time 28 day): 17.3 g
A/G ([…], time 7 day): 1.9
ALP ([…], time 7 day): 819.4 IU/L
ALT ([…], time 7 day): 34.6 IU/L
AST ([…], time 7 day): 61.8 IU/L
BUN ([…], time 7 day): 20 mg/dL
CRE ([…], time 7 day): 0.6 mg/dL
Ca ([…], time 7 day): 10.4 mg/dL
Cl ([…], time 7 day): 107.9 meq/L
DBIL ([…], time 7 day): 0.008 mg/dL
GLC ([…], time 7 day): 187.8 mg/dL
IP ([…], time 7 day): 7.9 mg/dL
K ([…], time 7 day): 4.9 meq/L
LDH ([…], time 7 day): 92 IU/L
Na ([…], time 7 day): 138.5 meq/L
PL ([…], time 7 day): 163.8 mg/dL
RALB ([…], time 7 day): 4 g/dL
TBIL ([…], time 7 day): 0.3 mg/dL
TC ([…], time 7 day): 82 mg/dL
TG ([…], time 7 day): 139.6 mg/dL
TP ([…], time 7 day): 6.2 g/dL
gamma-GTP ([…], time 7 day): 1 IU/L
A/G ([…], time 14 day): 1.8
ALP ([…], time 14 day): 708.6 IU/L
ALT ([…], time 14 day): 29.4 IU/L
AST ([…], time 14 day): 57.2 IU/L
BUN ([…], time 14 day): 19.6 mg/dL
CRE ([…], time 14 day): 0.6 mg/dL
Ca ([…], time 14 day): 10.4 mg/dL
Cl ([…], time 14 day): 107.5 meq/L
DBIL ([…], time 14 day): 0.002 mg/dL
GLC ([…], time 14 day): 191.8 mg/dL
IP ([…], time 14 day): 7.2 mg/dL
K ([…], time 14 day): 4.8 meq/L
LDH ([…], time 14 day): 88 IU/L
Na ([…], time 14 day): 140.3 meq/L
PL ([…], time 14 day): 168.2 mg/dL
RALB ([…], time 14 day): 4.1 g/dL
TBIL ([…], time 14 day): 0.3 mg/dL
TC ([…], time 14 day): 86 mg/dL
TG ([…], time 14 day): 139.4 mg/dL
TP ([…], time 14 day): 6.3 g/dL
gamma-GTP ([…], time 14 day): 2 IU/L
A/G ([…], time 28 day): 2
ALP ([…], time 28 day): 589.8 IU/L
ALT ([…], time 28 day): 30.6 IU/L
AST ([…], time 28 day): 57.4 IU/L
BUN ([…], time 28 day): 20.6 mg/dL
CRE ([…], time 28 day): 0.5 mg/dL
Ca ([…], time 28 day): 9.9 mg/dL
Cl ([…], time 28 day): 107.3 meq/L
DBIL ([…], time 28 day): 0.008 mg/dL
GLC ([…], time 28 day): 192 mg/dL
IP ([…], time 28 day): 6.6 mg/dL
K ([…], time 28 day): 4.4 meq/L
LDH ([…], time 28 day): 92.2 IU/L
Na ([…], time 28 day): 140.6 meq/L
PL ([…], time 28 day): 154.4 mg/dL
RALB ([…], time 28 day): 4.2 g/dL
TBIL ([…], time 28 day): 0.3 mg/dL
TC ([…], time 28 day): 75.6 mg/dL
TG ([…], time 28 day): 140 mg/dL
TP ([…], time 28 day): 6.4 g/dL
gamma-GTP ([…], time 28 day): 1.8 IU/L
